Results published in paper PMC7067379, “Mapping the S1 and S1’ subsites of cysteine proteases with new dipeptidyl nitrile inhibitors as trypanocidal agents” (PLoS Neglected Tropical Diseases, 2020).
Read-outs that look alike come from different tables or passages of the source.

Experiments:
cathepsin B (CatB) = cathepsin B (CatB) (Homo sapiens, UniProt P07858); test: Cathepsin B enzyme inhibition; format: biochemical; conditions: for Ki: SD lower than 15%, read-out: pKi CatB (converted)
[1] = molecular target: T1, Human recombinant cathepsin K (Homo sapiens, UniProt P43235); test: Cathepsin K assay; format: biochemical; conditions: for remaining activity at 10 µM: read-out: remaining activity (%) at 10 μM, CatK; for Ki: SD lower than 15%, read-out: pKi CatK (converted)
T1 sequence (P43235 115-329): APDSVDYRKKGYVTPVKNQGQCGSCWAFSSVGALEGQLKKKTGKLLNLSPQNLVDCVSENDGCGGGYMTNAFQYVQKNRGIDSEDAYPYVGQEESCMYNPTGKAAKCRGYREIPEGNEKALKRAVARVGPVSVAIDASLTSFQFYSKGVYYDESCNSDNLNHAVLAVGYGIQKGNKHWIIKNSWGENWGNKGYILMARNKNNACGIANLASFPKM
Experimental: Human recombinant cathepsin K was assayed on a FLUOSTAR Optima plate reader at 25 °C with an excitation wavelength of 360 nm and an emission wavelength of 440 nm on a 96 well plate. The enzyme solution (23 μg/mL in 50 mM sodium acetate pH 5.5, 50 mM NaCl, 0.5 mM EDTA, 5 mM DTT) was diluted 1:100 with assay buffer (100 mM sodium citrate buffer pH 5.0, 100 mM NaCl, 1 mM EDTA, 0.01% CHAPS) containing 5 mM DTT and was then incubated at 37 °C for 30 min for activation. A 1.5 mM stock solution of the substrate Z-Leu-Arg-AMC was prepared in DMSO. […] The assay was performed with a final concentration of cathepsin K of 1.73 ng/mL. Stock solutions of inhibitors were prepared in DMSO. The final DMSO concentration was 2% (4 μL). Into a well containing 194.5 μL assay buffer, 0.8 μL of the fluorogenic substrate, DMSO and inhibitor solution (3.2 μL) were added. Upon addition of cathepsin K (1.5 μL), the measurement was started and followed for 20 min.

cathepsin L (CatL) = cathepsin L (CatL) (Homo sapiens, UniProt P07711); test: Cathepsin L enzyme inhibition; format: biochemical; conditions: for Ki: SD lower than 15%, read-out: pKi CatL (converted)
cathepsin S (CatS) = cathepsin S (CatS) (Homo sapiens, UniProt P25774); test: Cathepsin S enzyme inhibition; format: biochemical; conditions: for Ki: SD lower than 15%, read-out: pKi CatS (converted)
Experimental: (§1) Enzyme inhibition studies for Cz and LmCPB were performed as previously described for Cz. The experimental procedures are described in the Supporting Information (see chapter S3). Cathepsins B, L, S were assayed as reported.

recombinant cruzain (Cz) = recombinant cruzain (Cz) (Trypanosoma cruzi, UniProt P25779); test: Cruzain enzyme inhibition; format: biochemical
Experimental: as §1

[2] = molecular target: Leishmania mexicana CPB (LmCPB) (Leishmania mexicana, UniProt P36400); test: LmCPB enzyme inhibition; format: biochemical
Experimental: as §1

[3] = test system: T. cruzi Tulahuen LacZ strain, intracellular amastigote forms; test: In vitro trypanocidal activity on intracellular amastigote forms (Tulahuen strain); format: cell-based, Trypanosoma cruzi; conditions: for EC50: Trypanosoma cruzi, TULAHUEN; for SI (selective index): from EC50 (T. cruzi) and CC50 (LLCMK2)
Experimental: Cells were evaluated in 96-well plates. Cells from the LLCMK2 lineage were plated at a concentration of 5x10^4 cells mL^-1. Trypomastigote forms of the Tulahuen LacZ strain were added at a concentration of 5×10^5 parasites mL^-1 and placed in the incubator at 37°C with 5% CO2 for 24 h. After the incubation period, the trypomastigote forms present were removed by successive washes with PBS, remaining only as intracellular amastigote forms. Compounds were added at different concentrations (1.95 μM to 250 μM serial dilutions) and incubated for 72 h. At the end of this period, the substrate CPRG (chlorophenol red β-D-galactopyranoside, 400 μM in 0.3% Triton X-100, pH 7.4) was added. […] Benznidazole was used as a positive control in the same concentrations as the substances, and DMSO as a negative control. Compounds were solubilized in DMSO. The selectivity index (SI) was calculated using the formula: […]. All statistical analyses were done with the program GraphPad Prism v.5.

[4] = Mammalian cytotoxicity assay (MTT); format: cell-based; conditions: rhesus monkey, LLCMK2 cells;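 note: Read-out is absorbance at 570 nm of formazan taken up in DMSO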
Experimental: (§2) LLCMK2 cells were cultured in 96-well plates at a concentration of 5 x 10^4 cells/ml. After 48 h, the plates were washed twice with PBS and 200 μL RPMI medium was added with serial dilutions of the compounds and benznidazole (1.95 μM to 250 μM) in triplicate. After 72 h at 37 °C, the cytotoxic activity of the compounds was determined by the classical MTT [3- (4,5-dimethylthiazol-2-yl) -2,5-diphenyltetrazolium bromide] method. Briefly, 50 μL MTT dissolved in PBS (2.0 mg mL^-1) was added to each well and the plates were incubated for 4 h at 37 °C. The formed formazan crystals were dissolved with DMSO (50 μL/well) and the absorbance of the samples was measured by spectrophotometer at 570 nm after 30 min.

LLCMK2 cells = test: Mammalian cytotoxicity assay (MTT); format: cell-based; conditions: LLCMK2, 72 h, MTT; Table 2;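 note: Read-out is absorbance at 570 nm of formazan taken up in DMSO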
Experimental: as §2

T. cruzi infection = test system: T. cruzi infection; set-up: method as in PMID 14580960; conditions: mice ref 10, 11; cited from earlier work
T. cruzi = test system: T. cruzi; set-up: method as in PMID 14580960; conditions: dogs ref 10, 11; cited from earlier work
[5] = dog, in vivo; cited from earlier work
[6] = 10 μM, replicates = 2, n.i. = no inhibition observed at 10 μM
[7] = 72 h, amastigote, Tulahuen strain, 72 h, Table 2, read-out: EC50 trypanocidal activity
[8] = T. cruzi amastigote form, S1 Table, read-out: pEC50 (converted)
[9] = LLCMK2, 72 h, MTT, Table 2, read-out: CC50 cytotoxicity
[10] = S1 Table, maximum concentration used 250 µM, read-out: CC50
[11] = SD lower than 15%, read-out: pKi Cz (converted)
[12] = SD lower than 15%, read-out: pKi LmCPB (converted)
[13] = read-out: EC50 T. cruzi, S1 Table, maximum concentration used 250 µM
[14] = read-out: pEC50, T. cruzi amastigote form (converted), S1 Table
[15] = relative to compound 11, sign not given, direction by cell colour or wording
[16] = S1 Table, maximum concentration used 250 µM, read-out: EC50 T. cruzi

Chain of Leishmania mexicana CPB (LmCPB) (P36400 126-443): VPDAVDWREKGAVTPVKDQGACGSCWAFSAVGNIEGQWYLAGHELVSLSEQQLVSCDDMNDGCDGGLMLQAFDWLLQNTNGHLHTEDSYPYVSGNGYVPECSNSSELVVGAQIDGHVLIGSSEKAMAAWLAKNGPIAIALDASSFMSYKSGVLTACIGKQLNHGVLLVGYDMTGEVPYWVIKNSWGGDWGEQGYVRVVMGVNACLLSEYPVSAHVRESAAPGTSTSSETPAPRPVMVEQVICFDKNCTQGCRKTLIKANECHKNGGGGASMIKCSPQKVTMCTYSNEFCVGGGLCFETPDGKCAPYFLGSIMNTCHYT
Chain of recombinant cruzain (Cz) (P25779 123-337): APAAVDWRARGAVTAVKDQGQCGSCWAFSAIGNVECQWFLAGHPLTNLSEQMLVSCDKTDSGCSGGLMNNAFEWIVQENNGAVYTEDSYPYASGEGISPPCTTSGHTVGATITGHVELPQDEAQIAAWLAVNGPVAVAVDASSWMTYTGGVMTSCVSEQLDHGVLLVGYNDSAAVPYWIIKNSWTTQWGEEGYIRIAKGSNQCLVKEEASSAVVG
Chain of cathepsin S (CatS) (P25774 115-331): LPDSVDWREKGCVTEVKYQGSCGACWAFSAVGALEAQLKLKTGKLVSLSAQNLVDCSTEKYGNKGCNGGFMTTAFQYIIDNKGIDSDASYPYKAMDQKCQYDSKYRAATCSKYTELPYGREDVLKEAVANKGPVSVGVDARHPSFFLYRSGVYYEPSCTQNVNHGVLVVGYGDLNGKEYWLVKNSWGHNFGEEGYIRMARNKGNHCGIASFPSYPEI
Chain of cathepsin L (CatL) (P07711 114-333): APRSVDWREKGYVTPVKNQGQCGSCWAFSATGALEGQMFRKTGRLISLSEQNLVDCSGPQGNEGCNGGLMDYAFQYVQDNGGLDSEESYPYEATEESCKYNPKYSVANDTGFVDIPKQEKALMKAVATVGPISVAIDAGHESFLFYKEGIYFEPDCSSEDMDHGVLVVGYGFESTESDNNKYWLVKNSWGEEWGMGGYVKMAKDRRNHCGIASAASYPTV

| Compound | EC50 [3, 7] | EC50 [3, 8] | CC50 at 72 h [4, 9] | CC50 at 72 h [4, 10] | melting point | Ki (cathepsin B (CatB)) | Ki [1] | Ki (cathepsin L (CatL)) | Ki (cathepsin S (CatS)) | Ki (recombinant cruzain (Cz); [11]) | Ki [2, 12] | EC50 [3, 13] | EC50 [3, 14] | SI (selective index) ([3]; Table 2) | further results |
| --- | --- | --- | --- | --- | --- | --- | --- | --- | --- | --- | --- | --- | --- | --- | --- |
| C[C@H](OCc1ccccc1)[C@H](C#N)NC(=O)[C@H](Cc1ccccc1)NC(=O)c1cc(C(C)(C)C)nn1C [Compound 57, N-((S)-1-(((1S,2S)-2-(Benzyloxy)-1-cyanopropyl)amino)-1-oxo-3-phenylpropan-2-yl)-3-(tert-butyl)-1-methyl-1H-pyrazole-5-carboxamide] | 4300 ± 320 nM | 3980 nM | ~125000 nM | 141000 nM | 123 to 124 °C |  |  |  |  |  |  |  |  |  | remaining activity (%) at 10 μM, CatB (cathepsin B (CatB); [6]): n.i.^c; remaining activity at 10 µM [1, 6]: 97%; remaining activity at 10 µM (cathepsin L (CatL); [6]): 85%; remaining activity (%) at 10 μM, CatS (cathepsin S (CatS); [6]): n.i.^c; remaining activity at 10 µM (recombinant cruzain (Cz); 10 μM, replicates = 2): 75%; remaining activity at 10 µM ([2]; 10 μM, replicates = 2): 72%; CC50 (LLCMK2 cells): > 100000 nM |
| CN1CCN(C(=O)N[C@@H](Cc2ccccc2)C(=O)N[C@H](/C=C/S(=O)(=O)c2ccccc2)CCc2ccccc2)CC1 [Compound K777] |  |  |  |  |  |  |  |  |  |  |  |  |  |  | rescue from lethal infection (T. cruzi infection): rescue mice of a lethal experimental T. cruzi infection; effect on parasite growth (T. cruzi): reduce parasite growth; side effects [5]: substantial side effects |
| N#CC1(NC(=O)[C@H](Cc2cccc(Cl)c2)NC(=O)c2ccccc2)CC1 [Compound 7, (S)-N-(3-(3-Chlorophenyl)-1-((1-cyanocyclopropyl)amino)-1-oxopropan-2-yl)benzamide] |  |  |  | 4000 nM | 213 to 215 °C | 3160 nM | 631 nM | 50.1 nM | 20 nM | 126 nM | 631 nM | > 100000 nM | > 100000 nM |  |  |
| Cn1nc(C(C)(C)C)cc1C(=O)N[C@@H](Cc1cccc(Cl)c1)C(=O)NC1(C#N)CC1 [Compound 8, (S)-3-(tert-Butyl)-N-(3-(3-chlorophenyl)-1-((1-cyanocyclopropyl)amino)-1-oxopropan-2-yl)-1-methyl-1H-pyrazole-5-carboxamide] |  |  |  | > 100000 nM | 152 to 154 °C | 3980 nM | 398 nM | 2.51 nM | 200 nM | 39.8 nM | 200 nM | > 100000 nM | > 100000 nM |  | EC50 ([3]; amastigote forms of T. cruzi (Tuhaluen strain), Figs 12-14, unit inferred): > 100000 nM |
| CC(C)C[C@H](NC(=O)c1ccnc2cc(Cl)ccc12)C(=O)NC1(C#N)CC1 [Compound 15, (S)-7-Chloro-N-(1-((1-cyanocyclopropyl)amino)-4-methyl-1-oxopentan-2-yl)quinoline-4-carboxamide] |  | 79400 nM | 73600 ± 8740 nM | > 100000 nM | 169 to 170 °C |  | 126 nM | 251 nM | 126 nM | 15.8 nM | 50.1 nM |  |  | 1.14 | remaining activity at 10 µM (cathepsin B (CatB); [6]): 89%; difference in pKi, CatL (cathepsin L (CatL); [15]): 1.0; EC50 ([3]; 72 h, read-out: EC50 trypanocidal activity, amastigote, Tulahuen strain, 72 h, Table 2): 64700 ± 4320 nM; EC50 [3, 16]: 77300 nM |
| N#CC1(NC(=O)[C@H](Cc2ccccc2)NC(=O)c2cccc(OC(=O)c3ccccc3)c2)CC1 [Compound 16, (S)-3-((1-((1-Cyanocyclopropyl)amino)-1-oxo-3-phenylpropan-2-yl)carbamoyl)phenyl benzoate] | 47300 ± 3260 nM | 50100 nM | > 100000 nM |  | 185 to 187 °C | 6310 nM | 631 nM | 501 nM | 50.1 nM | 126 nM | 100 nM |  |  | > 2.1 |  |
| N#CC1(NC(=O)[C@H](Cc2ccccc2)NC(=O)c2ccnc3cc(Cl)ccc23)CC1 [Compound 13, (S)-7-Chloro-N-(1-((1-cyanocyclopropyl)amino)-1-oxo-3-phenylpropan-2-yl)quinoline-4-carboxamide] |  |  |  | > 100000 nM | 260 to 262 °C | 12600 nM |  | 63.1 nM | 200 nM |  |  | > 100000 nM | > 100000 nM |  | remaining activity at 10 µM [1, 6]: 81%; Ki (recombinant cruzain (Cz)): 200 nM; Ki [2]: 126 nM |
| Cn1nc(C(C)(C)C)cc1C(=O)N[C@@H](Cc1ccccc1)C(=O)N[C@@H](C#N)Cc1ccccc1 [Compound 51, 3-(tert-Butyl)-N-((S)-1-(((R)-1-cyano-2-phenylethyl)amino)-1-oxo-3-phenylpropan-2-yl)-1-methyl-1H-pyrazole-5-carboxamide] | 8600 ± 530 nM | 7940 nM | 42300 ± 3940 nM | 42300 nM | 98 to 99 °C |  | 2510 nM | 126 nM | 1260 nM | 501 nM | 794 nM |  |  | 4.9 | remaining activity at 10 µM (cathepsin B (CatB); [6]): 94% |
| CC(C)C[C@H](NC(=O)c1cnc2[nH]ccc2c1)C(=O)NC1(C#N)CC1 [Compound 18, (S)-N-(1-((1-Cyanocyclopropyl)amino)-4-methyl-1-oxopentan-2-yl)-1H-pyrrolo[2,3-b]pyridine-5-carboxamide] |  | > 100000 nM |  | > 100000 nM | 79 to 80 °C | 31600 nM | 2 nM | 79.4 nM | 50.1 nM |  |  |  |  |  | Ki (recombinant cruzain (Cz)): 20 nM; difference in pKi, Cz (recombinant cruzain (Cz); [15]): -0.7; Ki [2]: 63.1 nM; difference in pKi, LmCPB [2, 15]: -0.5; EC50 [3, 16]: > 100000 nM |
| N#CC1(NC(=O)[C@H](Cc2c[nH]c3ccccc23)NC(=O)c2ccnc3cc(Cl)ccc23)CC1 [Compound 14, (S)-7-Chloro-N-(1-((1-cyanocyclopropyl)amino)-3-(1H-indol-3-yl)-1-oxopropan-2-yl)quinoline-4-carboxamide] |  |  |  | > 100000 nM | 196 to 197 °C | 20000 nM |  | 2000 nM | 1000 nM | 631 nM | 2000 nM | > 100000 nM |  |  | remaining activity (%) at 10 μM, CatK [1, 6]: n.i.^c |
